# What was measured:
# [1] = system: ear weight gain produced by multiple doses of TPA in mice; assay: Chronic (multiple dose) TPA mouse ear inflammation assay, ear weight gain; format: in vivo, mouse (female CD-1); conditions: for Decrease in weight relative to TPA treated biopsies: 20 μg HCV/ear; for % Inhibition of Ear Weight Gain, Relative to Hydrocortisone (HCV) = 100%: head prints 1.25 eg/ear
# Description: The acute skin inflammation model described in Example 1, tests the ability of a compound to prevent inflammation and thus must be applied prophylactically. Most clinical situations, however, are present as chronic inflammatory conditions. […] The effects of the compounds of the present invention and Salifluor on chronically inflamed skin was measured in the mouse ear model that utilizes multiple TPA doses over a 10-day period to produce the inflammatory response.
# The assay used female CD-1 mice (7-9 weeks of age). Following a 2-week quarantine, mice were randomly assigned to test groups (5 mice/groups). TPA (10 uL of 0.01 TPA in acetone) was administered to both the inner and outer surface of each ear (2μg/ear) on day 0,2,4,7, and 9 on protocol. On Day 7,8 and 9, two applications of test article were applied to each ear 2 and 4 hours after dosing with TPA. The test articles were administered in 10 uL aliquots to both the inner and outer surface of each ear (20 μl total/dose). […] Hydrocortisone-17-valerate (HCV, 20μg/ear) was employed as a positive control. Mice were sacrificed at Day 10 on protocol and uniform punch biopsies (approximately 8 mm dia.) were taken from each ear. While on protocol, dermal irritation was scored semiquantitatively at Day 1,3,5,8, and 10.
# (§1) Inhibition of TPA stimulated increased ear weight was used as an initial measure of efficacy for all of the agents tested. One biopsy from each mouse was also quick frozen and stored at -70° C. for later assay of myleoperoxidase, an enzyme associated with infiltrating PMN, or other measure of efficacy. The remaining biopsy from each mouse treated with Trifluorosal or HCV was fixed in formalin and processed for histopathologic evaluation, including measurement of cellular infiltration (PMNs, endothelial cells, macrophages) and epidermal thickness at 20 random sites along the length of the specimen.
# Initially, a dose-response curve for multiple doses of TPA to produce mouse ear weight gain was generated in order to determine the concentration of TPA to be employed in the inhibition studies. […] Another major difference between the multiple TPA dose (or chronic assay for inflammation) and the single TPA dose (or acute assay for inflammation) in the mouse ear is sensitivity to Non-steroidal antiinflammatory drugs (NSAIDs) and antihistamines.
# [2] = system: TPA induced mouse ear edema; assay: Acute TPA mouse ear inflammation assay, edema (ear weight); format: in vivo
# Text: The anti-inflammatory effect of selected compounds of this invention were compared to those of Triclosan™ and hydrocortisone in a modified […] (TPA) mouse ear inflammation assay. TPA was used as an inflammogen rather than croton oil because TPA gives a well characterized inflammatory response at very low concentrations. […] This model can therefore be used to study the pharmacokinetics, clinical efficacy and adverse side effects of anti-inflammatory agents. To quantitate inflammation, ear punches from treated animals were used to measure increased ear mass (edema) and myeloperoxidase (MPO) activity. For the inhibition studies, ear biopsies were weighed six hours after treatment with TPA and the simultaneous application of the compound of the present invention. All the compounds were diluted in acetone. Following this, the biopsies were frozen and subsequently used to measure inhibition of MPO activity, an estimate of polymorphonuclear (PMN) […] activity in the affected area. Percent inhibition of edema was calculated as [c-t]/c x 100, where c and t are increases in ear weight in control and treated mice, respectively.
# Initially a dose-response curve for TPA-induced mouse ear edema was generated in order to determine the concentration of TPA to be employed in the inhibition studies. TPA produced a theoretical dose-response curve for edema with an ED50 of 80 ng/ear and an ED90 of 200 ng/ear in two separate experiments. ED50 is the dose at which 50% of the maximum effect was observed while ED90 is the dose at which 90% of the maximum effect was observed. […] The ED50 values for the compounds tested are as follows: […]
# [3] = system: TPA treated mouse ear skin; assay: Histopathology of ear biopsies after multiple doses of TPA (epidermal thickness, dermal cellularity); format: in vivo, mouse (female CD-1)
# Description: The assay used female CD-1 mice (7-9 weeks of age). Following a 2-week quarantine, mice were randomly assigned to test groups (5 mice/groups). TPA (10 uL of 0.01 TPA in acetone) was administered to both the inner and outer surface of each ear (2μg/ear) on day 0,2,4,7, and 9 on protocol. On Day 7,8 and 9, two applications of test article were applied to each ear 2 and 4 hours after dosing with TPA. The test articles were administered in 10 uL aliquots to both the inner and outer surface of each ear (20 μl total/dose). The candidate drugs were tested at several different concentrations (e.g., 5, 1.25, and 0.125 mg/ear) to determine a maximum effective dose within a range that could be effectively applied. Hydrocortisone-17-valerate (HCV, 20μg/ear) was employed as a positive control. Mice were sacrificed at Day 10 on protocol and uniform punch biopsies (approximately 8 mm dia.) were taken from each ear. While on protocol, dermal irritation was scored semiquantitatively at Day 1,3,5,8, and 10.
# as §1
# In order to confirm the subjective observations, quantitative determinations of 3 parameters (epidermal thickness, dermal thickness, and dermal cellularity) in the skin of negative controls (acetone), positive controls (TPA), and TPA treated skin treated with 3 doses of test article (Trifluorosal) and hydrocortisone were carried out. Epidermal thickness reflects the reactive proliferative activity induced by TPA in the […]: dermal thickness reflects primarily Ad edema but may also be affected by other phenomena, such as formation of granulation tissue, collagen synthesis, the activity of myofibroblasts, etc. Cellularity of the dermis is frequently used as a surrogate marker of inflammatory changes in the dermis.
# Determination of the epidermal thickness was performed under the microscope with a calibrated scale placed in the eyepiece. Ten determinations were carried out in the epidermis covering the outside of the ear using a 40× objective and a 10× eyepiece (400× total). The measurements were taken from the basal side of the basal layer (basement membrane) to the outer side of the last nucleated cell of the […]. The average of the 10 measurements expressed in microns was entered in the table.
# Determination of dermal thickness was performed using a similar technique. To avoid variability caused by the difference in sizes between the base and tip of the ear, only 3 measurements were performed in the center of the sample. The measurements were performed from the basement membrane of the external and internal epithelial and therefore include, in addition to both dermis (external and internal), the cartilage.
# Cellularity of the dermis was calculated by projecting a calibrated grid into the dermis and counting cells in the known area of the dermis. Areas of hair follicles or sebaceous glands were avoided. Five fields were counted and the results were adjusted to the number of cells in 1,000 square microns.
# The results of individual animals were entered in the table and the averages and standard deviation were calculated using an EXCEL database. In addition, the results were also expressed as a percentage of the control (acetone treated). Furthermore, the percentage of inhibition of the test articles were calculated using the following formula: [formula]
# [4] = system: TPA induced mouse ear edema; conditions: cited from earlier work
# [5] = Solubility of representative compounds in various solvent systems; format: physicochemical
# Description: The solubility of representative compounds of this invention in various solvent systems was determined. The solvents included ethanol, propylene glycol, SLS, Tween 80™ and combinations thereof.
# [6] = Single dose oral tolerance in rats; format: in vivo, rat (male weaning Sprague-Dawley); conditions: single dose 2.5 or 0.75 g/kg in 5% CMC, 7 days
# Description: To test for tolerance of the administered compounds, male weaning Sprague-Dawley rats were fed in a single dose of 2.5 or 0.75 g/kg of TMF-12, TMF-10, TMC-10 or TPC-10 in 5% carboxymethyl cellulose (CMC) or CMC alone. […] At completion of the 7 day observation period, necropsies were performed on all animals.
# [7] = in vivo; cited from earlier work
# [8] = system: ear weight gain produced by multiple doses of TPA in mice; conditions: cited from earlier work
# [9] = aqueous buffer, pH 10 K-buffer @ 35° C.
# [10] = aqueous buffer, pH 10 Na-buffer @ 22° C.
# [11] = organic solvent or mixture, Ethanol @ 19° C.
# [12] = organic solvent or mixture, Propylene Glycol @ 20° C.
# [13] = ph 10 na-buffer +0.5% sls, pH 10 Na-buffer @ 22° C. +0.5% SLS
# [14] = inflammogen dose-response, two separate experiments, 6 hours
structure (smiles),measurement,setting,value
"CCCCC(=O)O[C@]1(C(=O)CO)CC[C@H]2[C@@H]3CCC4=CC(=O)CC[C@]4(C)[C@H]3[C@@H](O)C[C@@]21C [Hydrocortisone 17-valerate, Hydrocortisone-17-valerate, reference compound]",Decrease in weight relative to TPA treated biopsies,[1]; Assay #1,71%
same,Decrease in weight relative to TPA treated biopsies,[1]; Assay #2,107%
same,Inhibition of ear weight gain,"[1]; 20μg/ear, first experiment",86%
"C[C@]12CCC(=O)C=C1CC[C@@H]1[C@@H]2[C@@H](O)C[C@@]2(C)[C@H]1CC[C@]2(O)C(=O)CO [Hydrocortisone, reference compound]",Relative anti-inflammatory potency (in words),[2]; acute assay,the most potent anti-inflammatory agent tested
same,"% Inhibition, Dermal Cellularity",[3]; 0.02 mg/ear,78.6%
same,"% Inhibition, Epidermal Thickness",[3]; 0.02 mg/ear,58.6%
same,Blood vessel prominence (in words),[3]; histopathology,Blood vessels were not as prominent
same,Cellularity of the dermis (in words),"[3]; histopathology, FIG. 1",reduced the epidermal thickness as well as the cellularity of the dermis
same,Epidermal thickness (in words),"[3]; histopathology, FIG. 1",reduced the epidermal thickness
CC(C)Cc1ccc(C(C)C(=O)O)cc1 (stereo not shown) [Ibuprofen],Inhibition of acute TPA assay by NSAIDs,[4],inhibited
COc1ccc2cc([C@H](C)C(=O)O)ccc2c1 [Naproxen],Inhibition of acute TPA assay by NSAIDs,[4],inhibited
CCCCCCCCCCS(=O)(=O)c1ccc(O)c(C(=O)Nc2cccc(C#N)c2)c1 [TMC-10],solubility,[5]; +0.5% tween 80,770 µg/mL
same,solubility,[5]; +1% sls,4270 µg/mL
same,solubility,[5]; +1.5% tween 80,2240 µg/mL
same,solubility,[5]; +2% SLS + 0.5% Tween 80,3980 µg/mL
same,solubility,[5]; +2% SLS + 1.0% Tween 80,4740 µg/mL
same,solubility,[5]; +2% SLS + 2.0% Tween 80,5050 µg/mL
same,solubility,[5]; +2% sls,6680 µg/mL
same,solubility,[5]; +3.0% tween 80,4690 µg/mL
same,solubility,[5]; +4% sls,7900 µg/mL
same,solubility,[5]; [9],5.58 µg/mL
same,solubility,[5]; [10],7.2 µg/mL
same,solubility,[5]; [11],36700 µg/mL
same,solubility,[5]; [12],1940 µg/mL
same,solubility,[5]; [13],3130 µg/mL
same,"% Inhibition of Ear Weight Gain, Actual",[1]; multiple doses of TPA,0%
same,"% Inhibition of Ear Weight Gain, Relative to Hydrocortisone (HCV) = 100%",[1]; multiple doses of TPA,0%
same,Illness or deaths,[6],No illness or deaths occurred
CCCCCCCCS(=O)(=O)c1ccc(O)c(C(=O)Nc2cccc(C(F)(F)F)c2)c1 [TMF-8],"% Inhibition of Ear Weight Gain, Actual",[1]; multiple doses of TPA,0%
same,"% Inhibition of Ear Weight Gain, Relative to Hydrocortisone (HCV) = 100%",[1]; multiple doses of TPA,0%
"CCCCCCCCCCCCCC(=O)O[C@@H]1[C@@H](C)[C@@]2(O)[C@@H](C=C(CO)C[C@]3(O)C(=O)C(C)=C[C@@H]23)[C@@H]2C(C)(C)[C@]12OC(C)=O [TPA, 12-tetradecanoyl 13-phorbol acetate, reference compound]",ED50 for TPA-induced ear edema,[2]; [14],80 ng/ear
same,ED90 for TPA-induced ear edema,[2]; [14],200 ng/ear
same,Dose of TPA producing maximal ear weight gain,[1]; multiple doses of TPA,2 μg/ear
same,Dose of TPA with marginal effects on ear weight gain,[1]; multiple doses of TPA,below 1 μg/ear
same,Histopathological change produced by multiple doses of TPA,[3]; multiple doses of TPA,dramatic hyperplasia of the epidermis as well as inflammatory changes in the dermis
CCCCCCCCCCS(=O)(=O)c1ccc(O)c(C(=O)Nc2ccc(C#N)cc2)c1 [TPC-10],solubility,[5]; +1% sls,690 µg/mL
same,solubility,[5]; +2% sls,910 µg/mL
same,solubility,[5]; +4% sls,1810 µg/mL
same,solubility,[5]; [9],3.45 µg/mL
same,solubility,[5]; [10],9.16 µg/mL
same,solubility,[5]; [11],11500 µg/mL
same,solubility,[5]; [12],810 µg/mL
same,solubility,[5]; [13],300 µg/mL
same,"% Inhibition of Ear Weight Gain, Actual",[1]; multiple doses of TPA,0%
same,"% Inhibition of Ear Weight Gain, Relative to Hydrocortisone (HCV) = 100%",[1]; multiple doses of TPA,0%
same,Illness or deaths,[6],No illness or deaths occurred
"Oc1cc(Cl)ccc1Oc1ccc(Cl)cc1Cl [Triclosan, 2',4,4'-trichloro-2-hydroxy-diphenyl-ether]",Anti-inflammatory activity in clinical trials,[7],have been reported to have anti-inflammatory activity in clinical trials
O=C(O)Cc1ccccc1Nc1c(Cl)cccc1Cl [diclofenac],Sensitivity of chronic TPA assay to NSAIDs,[8],insensitive
CN1C(C(=O)Nc2ccccn2)=C(O)c2ccccc2S1(=O)=O [piroxicam],Sensitivity of chronic TPA assay to NSAIDs,[8],insensitive

# Reference: patent US6117859A, “Method of relieving chronic inflammation by using 5-alkylsulfonylsalicylanilides” (The Research Foundation of State University of New York, priority 1999, dated 2000)
